How the values were obtained:
[1] = molecular target: T1, GST-fused lck SH2 domain (Homo sapiens, UniProt P06239); assay: Inhibition of in vitro binding of lck SH2 domain to its cognate pYEEI peptide (BIAcore 2000); conditions: IC50 class for inhibition of GST-lckSH2 binding to immobilized biotinylated […]pYEEIPI peptide; read-out: BOND DEGREE WITH SH2 OF 1ck
T1 construct: GST (Glutathione transferase)-fused lck SH2 domain
Method: The present inventors investigated the inhibition activity of phenyl derivatives on the interaction of GST (Glutathione transferase)-fused lck SH2 domain and a peptide […]pYEEIPI (comprising the sequence PYEEI, a cognate peptide of Lck SH2) by using a real time sensorgram (BIAcore 2000).
At first, the biotinylated peptide was fixed on the surface of BIAcore analysis apparatus and then GST-lckSH2 protein was injected over the surface of the immobilized peptides. The binding of GST-lck SH2 with the peptide is represented as the resonance units (referred as “RU” hereinafter) and 1,000 RU corresponds to a change in surface concentration of 1 ng/mm^2. The binding of GST-lck with the fixed peptide causes the change of refractory index, leading to the increase of RU. In the mean time, when the binding of GST-lck with the fixed peptide is inhibited, RU decreases. Those results are represented in Table 1.

[2] = tested on: IL-2 promoter; assay: IL-2 promoter luciferase reporter assay in anti-CD3 activated Jurkat cells; assay type: cell-based; conditions: Homo sapiens, TCR-induced (anti-CD3) IL-2 promoter luciferase, 2 h pre-incubation
Method: In order to confirm whether the compounds of the invention can pass through a cell membrane and inhibit the expression of IL-2 gene leading to T-cell proliferation, the present inventors firstly confirmed T-cell activity by detecting the activity of the luciferase fused on the downstream of IL-2 promoter.
To investigate the activity of IL-2 promoter, Jurkat cells (1×10^6) were transfected with a IL-2 reporter plasmids using Superfect™ (Qiagen Inc.). After 24 hours of transfection, Jurkat cells were pre-incubated with compounds of various concentrations (1 uM-50 uM) for 2 hours and further cultured on 35mm plate pre-coated with 5 ug/ml of anti-CD3 antibody, resulting in T cell activation. The luciferase activity was measured using Berthold luminometer LB953. The IC50 (50% inhibition concentration) of the compounds of the invention on TCR-induced IL-2 promoter activation are shown in Table 2.

[3] = tested on: collagen-induced rheumatoid arthritis; assay: Inhibition of collagen-induced rheumatoid arthritis in DBA1/LacJ mice; assay type: in vivo, mouse; set-up: key: sum of 4 leg scores (0-4 each), max 16; conditions: maximum 16, mean ± standard deviation
Method: After 2 weeks, booster immunization was carried out with 50 μg C II/IFA. From the 3rd week after primary immunization, compounds of the present invention were injected daily into peritoneal cavities of 6-8 mice per group for 15-20 days.
The vehicle control groups were injected daily with 100 μl of 5% ethanol-olive oil mixture in total 15-20 times. Widely used anti-rheumatic drug, Methotrexate, was dissolved in PBS and then injected to mice at 1 mg/kg/day every other day in total 8-10 times. Meanwhile, the compounds of the invention were dissolved in ethanol and then mulsified in olive oil, in which the final ethanol concentration was adjusted to 5% and the compounds of this invention was 50 mg/kg/day.
From the 3rd week after primary immunization, the extent of edema and the joint swelling was monitored everyday to determine arthritic index. Arthitic index is the sum of the arthritic scores of all 4 legs and, therefore, maximum arthritis index of 16 can be achieved (e.g., [4 (maximum arthritic score)/leg]×[4 legs/mouse]=16 (maximum arthritis index/mouse)). […] was presented by the mean arthritis index±standard deviation of each mouse group.

[4] = 50 mg/kg/day i.p. daily, day 15 after treatment (day 36 after primary immunization), sum of scores of four legs

T1 sequence (P06239 127-224 limits assumed): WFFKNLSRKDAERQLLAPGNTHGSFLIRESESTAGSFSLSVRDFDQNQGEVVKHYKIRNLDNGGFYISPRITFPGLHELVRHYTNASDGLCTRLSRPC

Structure (SMILES) | IC50 [1] | IC50 [2] | Arthritis index [3, 4] | Arthritis index ([3]; Methotrexate 1 mg/kg/day every other day in PBS, day 15 after treatment)
O=C(O)[C@@H](Cc1ccc(O)c(O)c1)NC(=S)/C=C/c1ccc(O)c(O)c1 [Example 16, 3-(3,4-dihydroxy-phenyl)-(R)-2-[3-trans-(3,4-dihydroxy-phenyl)-thioacryloylamino]-propionic acid] | 25 to 50 µM | 6.7 µM | 7.2 ± 1.2 | –
CC(C)(C)OC(=O)[C@@H](Cc1ccc(O)c(O)c1)NC(=S)/C=C/c1ccc(O)c(O)c1 [Example 20, 3-(3,4-dihydroxy-phenyl)-(R)-2-[3-trans-(3,4-dihydroxy-phenyl)-thioacrylolamino]-propionic acid tert-butyl ester] | 25 to 50 µM | 21.4 µM | 6.7 ± 0.4 | –
COC(=O)[C@H](Cc1ccc(O)c(O)c1)NC(=S)/C=C/c1ccc(O)c(O)c1 [Example 22] | 25 to 50 µM | 13.9 µM | 6.9 ± 1.2 | –
CC(C)OC(=O)[C@H](Cc1ccc(O)c(O)c1)NC(=S)/C=C/c1ccc(O)c(O)c1 [Example 26, 3-(3,4-dihydroxy-phenyl)-(S)-2-[3-trans-(3,4-dihydroxy-phenyl)-thioacryloylamino]-propionic acid isopropyl ester] | 25 to 50 µM | 18.7 µM | 7.0 ± 0.9 | –
COC(=O)[C@@H](Cc1ccc(O)c(O)c1)N(C)C(=O)/C=C/c1ccc(O)c(O)c1 [Example 29, 3-(3,4-dihydroxy-phenyl)-(R)-2-{[3-trans-(3,4-dihydroxy-phenyl)-acryloyl]-methyl-amino}-propionic acid methyl ester] | 10 to 25 µM | 7.6 µM | 6.1 ± 2.1 | –
CN(C(=O)/C=C/c1ccc(O)c(O)c1)[C@H](Cc1ccc(O)c(O)c1)C(=O)O [Example 30] | 25 to 50 µM | 15.8 µM | 6.5 ± 0.6 | –
CCOC(=O)[C@@H](Cc1ccc(O)c(O)c1)N(C)C(=O)/C=C/c1ccc(O)c(O)c1 [Example 31] | 10 to 25 µM | 8.9 µM | 5.9 ± 2.1 | –
CCCOC(=O)[C@@H](Cc1ccc(O)c(O)c1)N(C)C(=O)/C=C/c1ccc(O)c(O)c1 [Example 32] | 10 to 25 µM | 9 µM | 5.3 ± 1.7 | –
CC(C)OC(=O)[C@@H](Cc1ccc(O)c(O)c1)N(C)C(=O)/C=C/c1ccc(O)c(O)c1 [Example 33, 3-(3,4-dihydroxy-phenyl)-(R)-2-{[3-trans-(3,4-dihydroxy-phenyl)-acryloyl]-methyl-amino}-propionic acid isopropyl ester] | 10 to 25 µM | 7.8 µM | 5.7 ± 0.9 | –
CN(C(=O)/C=C/c1ccc(O)c(O)c1)[C@H](Cc1ccc(O)c(O)c1)C(=O)OC(C)(C)C [Example 34, 3-(3,4-dihydroxy-phenyl)-(R)-2-{[3-trans-(3,4-dihydroxy-phenyl)-acryloyl]-methyl-amino}-propionic acid tert-butyl ester] | 25 to 50 µM | 14.9 µM | 6.3 ± 0.8 | –
CN(C(=O)/C=C/c1ccc(O)c(O)c1)[C@H](Cc1ccc(O)c(O)c1)C(N)=O [Example 35, N-[l-carbamoyl-2-(3,4-dihydroxy-phenyl)-ethyl]-(R)-3-trans-(3,4-dihydroxy-phenyl)-N-methyl-acrylamide] | 10 to 25 µM | 9.7 µM | 6.8 ± 1.9 | –
CN(C(=O)/C=C/c1ccc(O)c(O)c1)[C@@H](Cc1ccc(O)c(O)c1)C(=O)O [Example 37, 3-(3,4-dihydroxy-phenyl)-(S)-2-{[3-trans-(3,4-dihydroxy-phenyl)-acryloyl]-methyl-amino}-propionic acid] | 25 to 50 µM | 17.3 µM | 6.7 ± 0.7 | –
COC(=O)[C@@H](Cc1ccc(O)c(O)c1)NC/C=C/c1ccc(O)c(O)c1 [Example 53, 3-(3,4-dihydroxy-phenyl)-2-[3-(3,4-dihydroxy-phenyl)-arylamino]-propionic acid methyl ester] | 25 to 50 µM | – | – | –
CN(Cc1cnc2nc(N)nc(N)c2n1)c1ccc(C(=O)N[C@@H](CCC(=O)O)C(=O)O)cc1 [MTX, methotrexate, reference compound] | – | – | – | 4.0 ± 1.1

Continued, in another order:

IC50 [1] | IC50 [2] | Structure (SMILES) | Arthritis index [3, 4] | Arthritis index ([3]; Methotrexate 1 mg/kg/day every other day in PBS, day 15 after treatment)
< 10 µM | 4.8 µM | CCOC(=O)[C@@H](Cc1ccc(O)c(O)c1)NC(=O)/C=C/c1ccc(O)c(O)c1 [Example 3, 3-(3,4-dihydroxy-phenyl)-(R)-2-[3-trans-(3,4-dihydroxy-phenyl)-acryloylamino]-propionic acid ethyl ester] | 4.5 ± 0.8 | –
< 10 µM | 7.8 µM | CCCOC(=O)[C@@H](Cc1ccc(O)c(O)c1)NC(=O)/C=C/c1ccc(O)c(O)c1 [Example 4, 3-(3,4-dihydroxy-phenyl)-(R)-2-[3-trans-(3,4-dihydroxy-phenyl)-acryloylamino]-propionic acid propyl ester] | 5.6 ± 0.5 | –
< 10 µM | 6.5 µM | CC(C)OC(=O)[C@@H](Cc1ccc(O)c(O)c1)NC(=O)/C=C/c1ccc(O)c(O)c1 [Example 5, 3-(3,4-dihydroxy-phenyl)-(R)-2-[3-trans-(3,4-dihydroxy-phenyl)-acryloylamino]-propionic acid isopropyl ester] | 4.9 ± 1.2 | –
10 to 25 µM | 7.8 µM | CC(C)(C)OC(=O)[C@@H](Cc1ccc(O)c(O)c1)NC(=O)/C=C/c1ccc(O)c(O)c1 [Example 6, 3-(3,4-dihydroxy-phenyl)-(R)-2-[3-trans-(3,4-dihydroxy-phenyl)-acryloylamino]propionic acid tert-butyl ester] | 5.8 ± 0.9 | –
< 10 µM | 2.4 µM | NC(=O)[C@@H](Cc1ccc(O)c(O)c1)NC(=O)/C=C/c1ccc(O)c(O)c1 [Example 7] | 4.3 ± 1.5 | –
10 to 25 µM | 17.1 µM | COC(=O)[C@@H](Cc1ccc(O)c(O)c1)NC(=S)/C=C/c1ccc(O)c(O)c1 [Example 15, 3-(3,4-dihydroxy-phenyl)-(R)-2-[3-trans-(3,4-dihydroxy-phenyl)-thioacryloylamino]-propionic acid methyl ester] | 5.7 ± 0.9 | –
10 to 25 µM | 4.6 µM | CCOC(=O)[C@@H](Cc1ccc(O)c(O)c1)NC(=S)/C=C/c1ccc(O)c(O)c1 [Example 17, 3-(3,4-dihydroxy-phenyl)-(R)-2-[3-trans-(3,4-dihydroxy-phenyl)-thioacryloylamino]-propionic acid ethyl ester] | 5.4 ± 0.7 | –
10 to 25 µM | 5.6 µM | CCCOC(=O)[C@@H](Cc1ccc(O)c(O)c1)NC(=S)/C=C/c1ccc(O)c(O)c1 [Example 18, 3-(3,4-dihydroxy-phenyl)-(R)-2-[3-trans-(3,4-dihydroxy-phenyl)-thioacryloylamino]-propionic acid propyl ester] | 5.8 ± 0.3 | –
10 to 25 µM | 8.9 µM | CC(C)OC(=O)[C@@H](Cc1ccc(O)c(O)c1)NC(=S)/C=C/c1ccc(O)c(O)c1 [Example 19, 3-(3,4-dihydroxy-phenyl)-(R)-2-[3-trans-(3,4-dihydroxy-phenyl)-thioacryloylamino]-propionic acid isopropyl ester] | 5.1 ± 1.1 | –
10 to 25 µM | 7.8 µM | NC(=O)[C@@H](Cc1ccc(O)c(O)c1)NC(=S)/C=C/c1ccc(O)c(O)c1 [Example 21, 3-(3,4-dihydroxy-phenyl)-(R)-2-[3-trans-(3,4-dihydroxy-phenyl)-thioacryloylamino]-propioneamide] | 5.8 ± 1.3 | –
10 to 25 µM | 10.8 µM | CCOC(=O)[C@H](Cc1ccc(O)c(O)c1)NC(=S)/C=C/c1ccc(O)c(O)c1 [Example 24, 3-(3,4-dihydroxy-phenyl)-(S)-2-[3-trans-(3,4-dihydroxy-phenyl)-thioacryloylamino]-propionic acid ethyl ester] | 6.1 ± 0.6 | –
